This passage reports solubility results from ChEMBL document CHEMBL1800042, “Generation of 3,8-substituted 1,2,4-triazolopyridines as potent inhibitors of human 11β-hydroxysteroid dehydrogenase type 1 (11β-HSD-1)” (Bioorg Med Chem Lett, 2011).

Molecules are shown by their SMILES. Converted amounts (≈) assume the structure as drawn.

This data set in a line: Solubility of the compound at pH 7.4. The data set is classed as physicochemical. The following applies: buffer.

As a reminder, the solubility is how much of the substance goes into solution per volume. Higher therefore signals much dissolved substance.

In turn, `Cc1c(Cl)cccc1Oc1cccn2c(C34CCC(O)(CC3)CC4)nnc12` returned a solubility of 11 µg/mL (≈ 28.7 µM).

Molecule `Cc1c(Cl)cccc1Oc1cccn2c(C34CCC(F)(CC3)CC4)nnc12` showed a solubility of 1 µg/mL (≈ 2.59 µM).

For `Cc1c(Cl)cccc1Oc1cccn2c(C34CCC(CC3)C4)nnc12`, the concentration in solution (solubility) came to 1 µg/mL (≈ 2.83 µM).
